Experimental findings from ChEMBL document CHEMBL1287705, “Design and synthesis of threading intercalators to target DNA” (Bioorg Med Chem Lett, 2010) are described below.

The test system of experiment [1] is HL-60. Briefly: Cytotoxicity against human HL60 cells by MTS assay. The format is functional, cell-based. Background: Formazan colour is commonly taken as a measure of viable cells.
Another experiment relates to Calf thymus DNA. Briefly: Displacement of ethidium bromide from calf thymus DNA by fluorometric assay. Format: nucleic-acid assay. To be noted: Bos taurus.
In experiment [2] the test system is HL-60. Nature of the experiment: Growth inhibition of human HL60 cells. Format: functional.

One may read the IC50 as the midpoint of a concentration-inhibition curve. A low value points to greater potency in that assay. In turn, `CN(C)CCNC(=O)c1cccc2c(NCCCCCCNS(=O)(=O)c3cccc4cccnc34)c3ccccc3nc12` displayed a half-maximal inhibitory concentration (IC50) with HL-60 [1] of 16 µM.
The molecule `CN(C)CCNC(=O)c1ccc2c(NCCCCCCNC(=O)c3cccc4ccccc34)c3ccccc3nc2c1` had an IC50 in the experiment with HL-60 [1] of 58.9 µM.
The same measure, in the same setting: with `CN(C)CCNC(=O)c1ccc2c(NCCCCCCNC(=O)c3ccc4ccccc4n3)c3ccccc3nc2c1` the figure was 30.7 µM; with `CN(C)CCNC(=O)c1ccc2c(NCCCCCCNS(=O)(=O)c3cccc4cccnc34)c3ccccc3nc2c1`, 35.8 µM; with `CN(C)CCNC(=O)c1cccc2c(NCCCCCCNS(=O)(=O)c3cccc4c(N(C)C)cccc34)c3ccccc3nc12`, 2.1 µM.
`CN(C)CCNC(=O)c1cccc2c(NCCCCCCNC(=O)c3ccc4ccccc4n3)c3ccccc3nc12` registered an IC50 in the experiment with HL-60 [1] of 22.6 µM.
In the case of `CN(C)CCNC(=O)c1cccc2c(NCCCCCCN)c3ccccc3nc12`, the Kapp in the experiment on Calf thymus DNA was determined as 3.1 ×10⁷ /M. The molecule further came in with an IC50 with HL-60 [1] of 0.45 µM.
In the experiment on HL-60 [1], `CN(C)CCNC(=O)c1cccc2c(NCCCCCCNC(=O)c3cccc4ccccc34)c3ccccc3nc12` had a half-maximal inhibitory concentration (IC50) of 3.5 µM.
The term GI50 denotes the concentration at which growth is held to half of that of the control. Read a high GI50 as lower sensitivity of the cells. For `Nc1c2ccccc2nc2ccccc12` [AMINACRINE], in the experiment with Calf thymus DNA, the Kapp was 1.8 ×10⁶ /M and the logKA amounted to 6.26. Besides, in the experiment with HL-60 [2], the GI50 turned out to be 2 µM.
In turn, `CN(C)CCNC(=O)c1ccc2c(NCCCCCCN)c3ccccc3nc2c1` returned a Kapp with Calf thymus DNA of 9.83 ×10⁶ /M. The molecule further came in with an IC50 in the experiment on HL-60 [1] of 38.3 µM.
For `CN(C)CCNC(=O)c1ccc2c(NCCCCCCNS(=O)(=O)c3cccc4c(N(C)C)cccc34)c3ccccc3nc2c1`, in the experiment on HL-60 [1], the IC50 is 26.7 µM.
